This assay has as its target T1, MAPK12 (p38 gamma) (Homo sapiens, UniProt P53778).
T1 construct: purchased Thermo Fisher Scientific (Life Technologies) SelectScreen
Put plainly: SelectScreen Z'LYTE. It is filed as biochemical. In short, it runs like this:
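NU5455 was profiled across the SelectScreen Broad panel of kinase activity and binding assays. Z'LYTE reactions such as CSF1R ran at apparent Km ATP, while the Adapta CAMK1 assay used ATP listed as 10. Values are given as percent.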

The inhibition is the change of the read-out against control, counted positive when it falls.

T1 sequence (P53778 whole entry): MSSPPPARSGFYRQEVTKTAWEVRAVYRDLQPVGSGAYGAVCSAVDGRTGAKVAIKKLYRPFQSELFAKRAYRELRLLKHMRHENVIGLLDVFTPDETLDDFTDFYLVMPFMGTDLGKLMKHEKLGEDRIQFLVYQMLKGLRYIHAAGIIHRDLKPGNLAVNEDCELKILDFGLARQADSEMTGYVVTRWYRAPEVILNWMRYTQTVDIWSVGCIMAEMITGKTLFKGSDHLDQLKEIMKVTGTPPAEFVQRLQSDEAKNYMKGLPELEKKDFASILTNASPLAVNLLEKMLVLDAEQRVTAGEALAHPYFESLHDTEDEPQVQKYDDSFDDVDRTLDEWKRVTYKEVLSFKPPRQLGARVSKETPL

With `CN(C(=O)CN1CCOCC1)c1ccc2sc3c(-c4cccc5c(=O)cc(N6CC7CCC(C6)O7)oc45)cccc3c2c1` [NU5455], the inhibition at 1 µM was -0.8%.

(Values after publication PMC6934184, “Selective DNA-PKcs inhibition extends the therapeutic index of localized radiotherapy and chemotherapy” (The Journal of Clinical Investigation, 2019).)
